Experiments:
[1] = test system: human corneal epithelial (HCE-T) cell line; assay: MTT cytotoxicity assay on HCE-T cells; format: cell-based
Method: (§1) The human corneal epithelial cell line HCE-T (Cellosaurus accession: CVCL_1272, RRID: CVCL_1272, RCB: RCB2280) was purchased from Procell Life Science and Technology Co., Ltd. (Wuhan, China). […] were cultured in high-glucose Dulbecco’s Modified Eagle Medium (DMEM), which was purchased from Procell Life Science and Technology Co., Ltd. (Wuhan, China). The high-glucose DMEM was DMEM basic medium supplemented with 15% fetal bovine serum (Procell), 1% penicillin/streptomycin (Procell), 5 μg/mL insulin, and 10 ng/mL human epidermal growth factor (Procell).
(§2) HCE-T cells were seeded in 96-well plates (8 × 10^3 cells/well, 100 μL medium) and cultured overnight at 37 °C, 5% CO2 for adhesion. BBR or its metabolites at various concentrations (BBR and M3 at the concentrations of 31.25, 62.5, 125, 250 and 500 µM, M1 and M4 at the concentrations of 25, 50, 100, 200 and 400 µM) in 0.5% DMSO were added and incubated for 24 h, with 0.5% DMSO in culture medium as the vehicle control. Subsequently, 20 μL MTT (5 mg/mL) was added to each well and the cells were cultured at 37 °C for 4 h. Then, the culture medium was removed, and 150 μL DMSO was added to dissolve formazan crystals and the absorbance at 570 nm was measured on a Synergy H1 multifunctional microplate reader (Biotek, Winooski, VT, USA). The IC50 values of test compounds were calculated by Graphpad Prism 8.5 (GraphPad Software Co., San Diego, CA, USA).

[2] = MTT cytotoxicity assay on HCE-T cells; format: cell-based, human; conditions: human, HCE-T human corneal epithelial cells; HCE-T cells, 24 h incubation
Method: as §1, §2

SMILES	IC50 [1]	IC50 at 24 h [2]
COc1ccc2cc3[n+](cc2c1OC)CCc1cc(O)c(O)cc1-3 [M3, demethyleneberberine]	> 400 µM	–
COc1cc2c(cc1O)CC[n+]1cc3c(OC)c(OC)ccc3cc1-2 [M4, jatrorrhizine]	–	> 400 µM

— paper PMC12693135, “Ocular Toxicity and Mechanistic Investigation for Berberine and Its Metabolite Berberrubine on Zebrafish” (Molecules, 2025)
